# What was measured:
# CYP2C9 = CYP2C9 (Homo sapiens, UniProt P11712); experiment: biochemical
# Description: (§1) Table S4. Inhibition of cytochrome P450s.
# (§2) Compounds were tested for inhibition of P450s using the enzyme substrate pairs and conditions noted. IC50s (µM) were calculated. Control P450 inhibitors were included for each isoform. […]
# (§3) Serial dilutions of a 10 mM stock solution were prepared in acetonitrile:DMSO (9:1). The final DMSO concentration was < 0.2%. Compounds were incubated with human liver microsomes in the presence of 2 mM NADPH in 100 mM potassium phosphate (pH 7.4) containing 5 mM magnesium chloride and a probe substrate, in a 200 µl assay final volume in duplicate. The probe substrate concentrations including bupropion (CYP2B6), amodiaquine (CYP2C8), tolbutamide (CYP2C9), mephenytoin (CYP2C19), dextromethorphan (CYP2D6) and midazolam/testosterone […]
# (§4) After incubation at 37 °C, reactions were terminated by addition of methanol containing internal standard (propranolol) for analytical quantification. The quenched samples were kept on ice for 10 min and centrifuged at 4 °C for 10 min. The supernatant was removed and the probe substrate metabolite was analyzed by LC-MS/MS (Agilent Technologies Triple Quad LC/MS). A decrease in the formation of the metabolite compared to vehicle control
# CYP2D6 = CYP2D6 (Homo sapiens, UniProt P10635); experiment: biochemical
# Chain of CYP2D6 (P10635 whole entry): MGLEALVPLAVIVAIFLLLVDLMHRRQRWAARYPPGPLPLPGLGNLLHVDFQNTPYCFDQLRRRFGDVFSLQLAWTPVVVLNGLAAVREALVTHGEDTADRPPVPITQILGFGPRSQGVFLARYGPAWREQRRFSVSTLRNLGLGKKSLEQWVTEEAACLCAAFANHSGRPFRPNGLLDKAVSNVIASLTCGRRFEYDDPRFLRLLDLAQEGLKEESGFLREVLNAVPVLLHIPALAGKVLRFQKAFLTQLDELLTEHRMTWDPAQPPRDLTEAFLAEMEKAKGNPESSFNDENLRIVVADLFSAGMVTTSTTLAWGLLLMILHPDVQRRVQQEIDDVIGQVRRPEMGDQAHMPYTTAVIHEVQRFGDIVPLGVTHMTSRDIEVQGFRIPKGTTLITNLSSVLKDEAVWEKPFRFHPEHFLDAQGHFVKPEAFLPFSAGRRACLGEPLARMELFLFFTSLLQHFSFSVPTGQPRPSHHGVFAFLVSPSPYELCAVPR
# Description: as §1, §2
# (§5) 1200 HPLC and a CTC PAL chilled autosampler, all controlled by MassHunter software (Agilent).
# (§6) After separation on a C18 reverse phase HPLC column (Agilent Zorbax StableBond 3.5µm, 2.1 x 30 mm) using an acetonitrile -water gradient system, peaks were analyzed by mass spectrometry (MS) using ESI ionization in MRM mode.
# as §3, §4
# [1] = target: SPase activity in M. tuberculosis H37Rv cell membrane fractions (Mycobacterium tuberculosis, UniProt P9WKA1); experiment: Inhibition of secretion (SPase activity) in membrane fractions; assay type: biochemical; conditions: fluorogenic peptide substrate 2 μM; 4 h, 37 °C
# Chain of SPase activity in M. tuberculosis H37Rv cell membrane fractions (P9WKA1 whole entry): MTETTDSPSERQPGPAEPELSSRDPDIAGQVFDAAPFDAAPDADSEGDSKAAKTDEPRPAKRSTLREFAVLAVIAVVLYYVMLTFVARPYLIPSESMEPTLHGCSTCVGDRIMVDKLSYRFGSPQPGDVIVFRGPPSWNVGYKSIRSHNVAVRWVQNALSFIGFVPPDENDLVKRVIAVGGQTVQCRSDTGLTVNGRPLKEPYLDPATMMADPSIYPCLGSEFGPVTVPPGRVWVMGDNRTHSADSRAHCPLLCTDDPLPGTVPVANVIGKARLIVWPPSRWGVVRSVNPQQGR
# [2] = tested on: M. tuberculosis wild-type strain; experiment: MIC against wild-type M. tuberculosis; assay type: cell-based, Mycobacterium tuberculosis; conditions: concentration required to inhibit growth by 90%, 5 days culture; for MIC: Mycobacterium tuberculosis, 120 h, read-out: MIC Wild type
# Caco-2 cells = experiment: Caco-2 permeability; conditions: for recovery: human, 10 μM
# Description: (§7) Permeability was measured across Caco-2 cells cultured in a Millipore 96-well Caco-2 plate. For apical to basolateral (A→B) permeability, 10 μM compound was added to the apical (A) side and amount of permeation was determined on the basolateral (B) side; for basolateral to apical (B→A) permeability, the compound was added to the B side and the amount of permeation was determine on the A side. Time points were taken at 2 h.
# (§8) Table S2. Permeability. Permeability was measured using Caco-2 cells after 1 and 2 hours incubation with compound. (A→B) is Apical to Basolateral; (B→A) is Basolateral to Apical. Data is expressed as permeability (10-6 cm s-1). dQ/dt is rate of permeation, C0 is initial concentration […]
# (§9) Article Duration direction value replicate replicate mean recovery
# in vitro = conditions: human; for Papp A→B at 2 h, 10 µM / Papp B→A at 2 h, 10 µM / efflux ratio at 2 h, 10 µM: Caco-2
# Description: as §7, §8, §9
# CYP3A4 = CYP3A4 (Homo sapiens, UniProt P08684); experiment: Cytochrome P450 inhibition; assay type: in vitro ADME; conditions: liver microsomes
# Chain of CYP3A4 (P08684 2-503): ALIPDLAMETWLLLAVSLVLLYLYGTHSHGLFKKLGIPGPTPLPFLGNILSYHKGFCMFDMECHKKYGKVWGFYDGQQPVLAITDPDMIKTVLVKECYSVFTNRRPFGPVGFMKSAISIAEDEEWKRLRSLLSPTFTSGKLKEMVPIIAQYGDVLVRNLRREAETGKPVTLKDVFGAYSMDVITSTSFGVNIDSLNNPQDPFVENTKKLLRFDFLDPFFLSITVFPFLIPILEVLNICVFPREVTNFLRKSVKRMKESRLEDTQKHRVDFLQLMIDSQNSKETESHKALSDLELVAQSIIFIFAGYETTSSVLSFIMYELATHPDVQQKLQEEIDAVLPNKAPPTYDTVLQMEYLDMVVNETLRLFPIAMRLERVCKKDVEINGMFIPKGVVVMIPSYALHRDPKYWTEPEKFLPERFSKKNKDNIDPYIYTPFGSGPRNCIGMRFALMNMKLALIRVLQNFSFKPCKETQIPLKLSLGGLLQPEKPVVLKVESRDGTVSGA
# Description: as §1
# (§10) Compounds were tested for inhibition of P450s using the enzyme substrate pairs and conditions noted. IC50s (µM) were calculated. Control P450 inhibitors were included for each isoform.
# (§11) For each compound, the analytical method was developed as follows. Analyte signal was optimized for each compound by ESI positive or negative ionization mode. An MS2 scan or an SIM scan was used to optimize fragmenter voltage and a product ion analysis was used to identify the best fragment for analysis. The collision energy was optimized using a product ion or MRM scan. An ionization ranking was assigned indicating the compound’s ease of ionization. Samples […]
# as §5, §6
# (§12) (1 picture or pasted object on this page, not shown here)
# as §3, §4
# [3] = Microsomal metabolic stability; conditions: human, pH 7.4; for half-life at 1 µM: liver microsomes; for microsomal CLint at 1 µM: microsomes
# Description: as §7
# Table S3. Metabolic stability. Metabolic stability was measured using human liver microsomes. […]
# [4] = tested on: M. tuberculosis strain under expressing LepB (LepB-UE); experiment: microbe, parasite or virus in culture; assay type: cell-based, Mycobacterium tuberculosis; conditions: for MIC: Mycobacterium tuberculosis, 120 h
# HepG2 cells = experiment: HepG2 cytotoxicity; assay type: cell-based, human; conditions: 3 days exposure, CellTiter-Glo
# Description: HepG2 cells were used to measure eukaryotic cytotoxicity. Viability of HepG2 was measured using CellTiter-Glo reagent (Promega) after 3 days of exposure to compounds. […] Staurosporine controls (maximum inhibition) and a staurosporine dose response were included on every plate.
# [5] = Plasma protein binding (Rapid Equilibrium Dialysis); assay type: in vitro ADME, human; conditions: human; for fraction unbound at 4 h, 5 µM: plasma
# Description: Molecule fraction fraction Post-Assay
# Table S5. Plasma protein binding
# Protein binding was measured in human plasma using Rapid Equilibrium Dialysis (RED) devices (Pierce) according to the manufacturers’ instructions; 5 µM compounds in plasma were dialysed against PBS for 4 h at 37C. Compounds were detected by LC-MS/MS in plasma and PBS
# CYP2B6 = target: T1, CYP2B6 (Homo sapiens, UniProt P20813); experiment: Cytochrome P450 inhibition
# T1 sequence (P20813 1-491): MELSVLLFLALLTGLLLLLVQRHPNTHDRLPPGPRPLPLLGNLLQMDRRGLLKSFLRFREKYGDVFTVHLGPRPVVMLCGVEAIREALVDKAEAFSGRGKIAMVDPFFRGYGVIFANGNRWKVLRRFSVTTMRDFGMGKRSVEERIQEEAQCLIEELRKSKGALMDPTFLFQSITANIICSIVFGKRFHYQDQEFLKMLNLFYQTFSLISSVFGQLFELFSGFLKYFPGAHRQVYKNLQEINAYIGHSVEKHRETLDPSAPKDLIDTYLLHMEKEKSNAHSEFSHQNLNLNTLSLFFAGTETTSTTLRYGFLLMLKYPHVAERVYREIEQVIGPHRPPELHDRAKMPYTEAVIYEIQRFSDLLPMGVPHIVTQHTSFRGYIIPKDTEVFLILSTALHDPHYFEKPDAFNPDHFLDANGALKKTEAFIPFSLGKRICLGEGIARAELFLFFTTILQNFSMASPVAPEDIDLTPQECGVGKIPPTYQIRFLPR
# Description: as §1, §10, §11, §5, §6, §12, §3, §4
# CYP2C19 = CYP2C19 (Homo sapiens, UniProt P33261); experiment: biochemical
# Chain of CYP2C19 (P33261 whole entry): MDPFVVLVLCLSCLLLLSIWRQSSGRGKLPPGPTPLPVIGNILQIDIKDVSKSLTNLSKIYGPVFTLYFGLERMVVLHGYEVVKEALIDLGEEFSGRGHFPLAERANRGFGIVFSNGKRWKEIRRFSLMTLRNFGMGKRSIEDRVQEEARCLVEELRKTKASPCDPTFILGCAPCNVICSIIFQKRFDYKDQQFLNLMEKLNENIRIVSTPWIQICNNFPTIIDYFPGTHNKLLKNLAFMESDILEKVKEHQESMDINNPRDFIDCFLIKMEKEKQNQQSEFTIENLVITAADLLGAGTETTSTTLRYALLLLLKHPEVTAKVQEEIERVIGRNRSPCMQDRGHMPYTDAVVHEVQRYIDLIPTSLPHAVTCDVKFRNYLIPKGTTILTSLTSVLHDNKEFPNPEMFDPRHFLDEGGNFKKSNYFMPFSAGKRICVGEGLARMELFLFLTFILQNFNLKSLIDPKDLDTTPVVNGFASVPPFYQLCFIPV
# Description: as §1, §10, §11, §5, §6, §12, §3, §4
# CYP2C8 = target: T2, CYP2C8 (Homo sapiens, UniProt P10632); experiment: biochemical
# T2 sequence (P10632 1-490): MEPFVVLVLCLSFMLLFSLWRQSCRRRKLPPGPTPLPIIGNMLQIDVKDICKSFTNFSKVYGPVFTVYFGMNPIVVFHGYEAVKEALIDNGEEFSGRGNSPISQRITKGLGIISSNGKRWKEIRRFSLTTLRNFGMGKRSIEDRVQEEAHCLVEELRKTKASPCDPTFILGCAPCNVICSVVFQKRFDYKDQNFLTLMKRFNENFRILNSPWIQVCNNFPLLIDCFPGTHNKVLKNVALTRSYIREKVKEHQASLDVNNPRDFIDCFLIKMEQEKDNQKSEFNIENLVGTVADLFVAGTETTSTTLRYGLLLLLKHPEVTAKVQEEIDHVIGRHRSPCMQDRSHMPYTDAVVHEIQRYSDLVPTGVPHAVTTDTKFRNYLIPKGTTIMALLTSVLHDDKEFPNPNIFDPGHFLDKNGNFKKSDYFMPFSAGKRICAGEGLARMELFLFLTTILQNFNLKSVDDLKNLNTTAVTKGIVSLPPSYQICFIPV
# Description: as §1, §10, §11, §5, §6, §12, §3, §4
# RAW 264.7 macrophages = experiment: Cytotoxicity against infected macrophages; assay type: cell-based, murine; conditions: Mus musculus; infected RAW264:7 cells, 72 h; read-out: IC50 Macrophage
# Description: (§13) Murine RAW 264.7 macrophages (ATCC TIB-71) were infected with M. tuberculosis DsRed (DREAM8) ([29]) as described at a multiplicity of infection of 1 for 24 h, washed, harvested, and dispensed into 384-well plates ([30]). Infected macrophages were exposed to compounds for 72 h; cell nuclei were stained with SYBR green I. Plates were imaged with an ImageXpress Micro High Content Screening System (Molecular Devices) using a ×4 objective and FITC and Texas Red channels. MetaXpress was used to determine the integrated intensity of bacteria or macrophages. […] Isoniazid and staurosporine controls (maximum inhibition) and dose responses were included on every plate.
# [6] = tested on: nonreplicating M. tuberculosis; experiment: Kill kinetics, nonreplicating (nutrient starved) bacteria; assay type: cell-based, Mycobacterium tuberculosis; conditions: nutrient starvation, PBS-tyloxapol
# [7] = tested on: replicating M. tuberculosis; experiment: Kill kinetics, replicating bacteria; conditions: aerobic growth
# [8] = tested on: intracellular M. tuberculosis (MTB) in RAW 264.7 macrophages; experiment: Activity against intracellular M. tuberculosis in macrophages (high-content microscopy); assay type: cell-based; conditions: Mycobacterium tuberculosis, RAW264.7, 72 h, intracellular M. tuberculosis in RAW 264.7 macrophages
# Description: as §13
# [9] = Mean plasma fraction Unbound Fuplasma
# Chain of CYP2C9 (P11712 whole entry): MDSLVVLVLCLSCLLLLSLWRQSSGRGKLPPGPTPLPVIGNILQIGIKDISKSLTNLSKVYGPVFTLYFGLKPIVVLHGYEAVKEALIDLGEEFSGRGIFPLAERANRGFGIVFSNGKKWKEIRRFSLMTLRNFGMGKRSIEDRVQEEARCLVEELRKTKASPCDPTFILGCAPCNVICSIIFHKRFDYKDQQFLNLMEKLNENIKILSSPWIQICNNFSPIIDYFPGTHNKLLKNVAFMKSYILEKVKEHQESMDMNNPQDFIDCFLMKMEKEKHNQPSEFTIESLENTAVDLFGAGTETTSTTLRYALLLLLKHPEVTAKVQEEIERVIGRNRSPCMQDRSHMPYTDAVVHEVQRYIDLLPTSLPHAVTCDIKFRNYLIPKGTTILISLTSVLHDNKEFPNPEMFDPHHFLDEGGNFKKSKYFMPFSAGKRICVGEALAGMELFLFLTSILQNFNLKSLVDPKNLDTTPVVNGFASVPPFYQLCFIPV
SMILES,IC50 (CYP2C9),IC50 (CYP2D6),MIC [2],MIC Wild type [2],"dQ/dt (rate of permeation), mean (Caco-2 cells; A→B, assay duration 1 hr)","dQ/dt (rate of permeation), mean (Caco-2 cells; A→B, assay duration 2 hr)","dQ/dt (rate of permeation), mean (Caco-2 cells; B→A, assay duration 1 hr)","dQ/dt (rate of permeation), mean (Caco-2 cells; B→A, assay duration 2 hr)","Papp A→B at 2 h, 10 µM (in vitro)","Papp B→A at 2 h, 10 µM (in vitro)","efflux ratio at 2 h, 10 µM (in vitro)","IC50 at 10 min (CYP3A4; pH 7.4, probe midazolam)","IC50 at 10 min (CYP3A4; pH 7.4, probe testosterone)",half-life at 1 µM [3],microsomal CLint at 1 µM [3],MIC LepB-UE [4],MIC [4],"IC50 (HepG2 cells; Homo sapiens, HepG2, 72 h)","recovery at 4 h, 5 µM [5]","fraction unbound at 4 h, 5 µM ([5]; Mean plasma fraction Bound)",further results
"CCCCNC(=S)Nc1nc2ccccc2o1 [Molecule 12, 1-(benzo[d]oxazol-2-yl)-3-butylthiourea]",> 20 µM,> 20 µM,23 to 32 µM,23 ± 9.0 µM,3.4E-05,3.2E-05,2.7E-05,3.0E-05,4.9 ×10⁻⁶ cm/s,5.8 ×10⁻⁶ cm/s,1.2,> 20 µM,> 20 µM,11 min,218 µL/min/mg,32 ± 11 µM,23 to 32 µM,21 ± 19 µM,80.1%,0.002,"IC50 [1]: > 200 µM; fraction unbound at 4 h, 5 µM [5, 9]: 0.002; IC50 (CYP2B6): > 20 µM; IC50 (CYP2C19): 12.7 µM; IC50 (CYP2C8): > 20 µM"
"CCCCNC(=S)Nc1nccs1 [Molecule 14, 1-butyl-3-(thiazol-2-yl)thiourea]",13.2 µM,> 20 µM,34 µM,34 ± 3.0 µM,2.6E-04,1.5E-04,2.3E-04,1.6E-04,22 ×10⁻⁶ cm/s,18 ×10⁻⁶ cm/s,0.81,> 20 µM,> 20 µM,26 min,89 µL/min/mg,41 ± 0.1 µM,41 µM,75 ± 26 µM,83.8%,0.01,"IC50 [1]: > 200 µM; recovery (Caco-2 cells; Caco-2, 1 h): 72%; recovery (Caco-2 cells; Caco-2, 2 h): 65%; recovery at 1 h, 10 μM (in vitro; Caco-2, recovery): 57%; recovery at 2 h, 10 μM (in vitro; Caco-2, recovery): 59%; fraction unbound at 4 h, 5 µM [5, 9]: 0.0098; IC50 (CYP2B6): > 20 µM; IC50 (CYP2C19): 13.5 µM; IC50 (CYP2C8): > 20 µM"
"COCCCNC(=S)Nc1nc2ccccc2s1 [Molecule 24, 1-(benzo[d]thiazol-2-yl)-3-(3-methoxypropyl)thiourea]",> 20 µM,> 20 µM,65 ± 21 µM,,1.1E-04,8.8E-05,8.0E-05,1.1E-04,17 ×10⁻⁶ cm/s,15 ×10⁻⁶ cm/s,0.87,> 20 µM,> 20 µM,8.2 min,282 µL/min/mg,,58 ± 1 µM,65 ± 60 µM,76.5%,0.055,"recovery at 2 h, 10 μM (in vitro; Caco-2, recovery): 54%; fraction unbound at 4 h, 5 µM [5, 9]: 0.055; IC50 (CYP2B6): > 20 µM; IC50 (CYP2C19): > 20 µM; IC50 (CYP2C8): > 20 µM"
"Cc1coc(NC(=S)NCC(C)C)n1 [Molecule 29, 1-isobutyl-3-(4-methyloxazol-2-yl)thiourea]",,,20 to 40 µM,20 ± 23 µM,,,,,,,,,,,,12 ± 1.0 µM,12 to 21 µM,27 to 78 µM,,,IC50 (RAW 264.7 macrophages): 8.1 ± 1.6 µM; concentration giving sterilization of nonreplicating organisms [6]: 100 µM; IC50 (HepG2 cells): 27 ± 6 µM; concentration with bactericidal activity (defined as 3 log kill) [7]: 27.5 μM
"CCCNC(=S)Nc1nc2c(Cl)cccc2s1 [Molecule 31, 1-(4-chlorobenzo[d]thiazol-2-yl)-3-propyl thiourea]",,,> 100 µM,,,,,,,,,,,,,14 ± 2.0 µM,14 µM,> 100 µM,,,IC50 (RAW 264.7 macrophages): > 100 µM; IC50 [8]: 11 ± 2.2 µM

# From article PMC9927457 (Microbiology Spectrum, 2023)
